Like-named read-outs stand apart in the source and are kept apart here.
Key:
[1] = system: CXF280 Human Colon Carcinoma; assay: Antitumor testing against human colon cancer xenograft CXF280; format: in vivo, BALB/c nu/nu mice; set-up: key to Fecal observation: N: normal feces; L: loose passage; key to % Growth inhibition: NE: Not Effective; conditions: for inhibition in vivo at 1 mmol/kg/day: Exp. 1, 1.0 mmol/kg/day x 21, oral
Protocol: CXF280 tumor (about 2×2 mm piece) was implanted subcutaneously into BALB/c nu/nu mice (21-22 g) on day 0. When tumor volume became 100 mm^3 on day around 14, the compounds of the invention were orally administered daily for 3 weeks. At one day after the last treatment, tumor volume was calculated.
The percent inhibition of tumor growth given in Table 3 above was calculated from the formula:
% Inhibition ={1-(T-V0)/(C-V0)}×100
V0 =volume of tumor before treatment was started, T=volume of the tumors from the treated group, C=volume of the tumor from the control group.

[2] = Pharmacokinetic profiles in monkeys (plasma 5'-DFUR after oral administration); format: in vivo; conditions: cynomolgous monkeys, metabolite 5'-DFUR in plasma
Protocol: The compounds of formula (I) were orally administered into groups of 2 to 5 cynomolgous monkeys (3-4 kg). At various times after the administration, plasma was taken for determination of blood concentrations of intact molecules and their active metabolite 5'-DFUR. Metabolites in the plasma were separated by HPLC and their concentrations were calculated.

monkey liver acylamidase = assay: Susceptibility to monkey liver acylamidase (crude liver extract, 5'-DFCR formed by HPLC); format: in vitro ADME; conditions: tetrahydrouridine 0.4 mM, 37° C., 60 min
Protocol: (§1) The N^4 -(substituted-oxycarbonyl)-5'-DFCRs of the invention were incubated with crude extracts of monkey and human liver in the presence of an inhibitor of cytidine deaminase, tetrahydrouridine (0.4 mM) at 37° C. for 60 min. Thereafter, the product 5'-DFCR was separated by HPLC and the enzyme susceptibility was calculated from the amount of the product.

human liver acylamidase = assay: Susceptibility to human liver acylamidase (crude liver extract, 5'-DFCR formed by HPLC); format: in vitro ADME; conditions: tetrahydrouridine 0.4 mM, 37° C., 60 min
Protocol: as §1

[3] = Toxicity (LD50), oral administration daily for 21 days in mice; conditions: mouse, in vivo
Protocol: The toxicity (LD50) of the representative compounds (Example 13,14, and 17) of the present invention was examined by oral administration daily for 21 days in mice. The representative LD50 values obtained from the experiments were more than 500 mg/kg/day.

[4] = Exp. 2, 0.089 mmol/kg/day x 21, oral
[5] = Mus musculus, po, Exp. 1, 0.13 mmol/kg/day x 21, oral, read-out: % Growth inhibition
[6] = Mus musculus, po, Exp. 2, 0.13 mmol/kg/day x 21, oral, read-out: % Growth inhibition
[7] = Exp. 2, 2.25 mmol/kg/day x 21, oral
[8] = Mus musculus, po, Exp. 2, 0.3 mmol/kg/day x 21, oral, read-out: % Growth inhibition
[9] = Mus musculus, po, Exp. 2, 0.67 mmol/kg/day x 21, oral, read-out: % Growth inhibition
[10] = Mus musculus, po, Exp. 2, 1.5 mmol/kg/day x 21, oral, read-out: % Growth inhibition
[11] = Mus musculus, po, Exp. 2, 2.25 mmol/kg/day x 21, oral, read-out: % Growth inhibition
[12] = Exp. 1, 1.5 mmol/kg/day x 21, oral
[13] = Mus musculus, po, Exp. 1, 0.3 mmol/kg/day x 21, oral, read-out: % Growth inhibition
[14] = Mus musculus, po, Exp. 1, 0.67 mmol/kg/day x 21, oral, read-out: % Growth inhibition
[15] = Mus musculus, po, read-out: % Growth inhibition
[16] = Mus musculus, po, Exp. 1, 1.5 mmol/kg/day x 21, oral, read-out: % Growth inhibition

## O=c1[nH]cc(F)c(=O)[nH]1 [Example 5-FU, 5-fluorouracil, reference compound]
[1]; Exp. 1, 0.089 mmol/kg/day x 21, oral
  Fecal observation: N
[1]; Exp. 1, 0.13 mmol/kg/day x 21, oral
  Fecal observation: N
[1]; Exp. 1, 0.2 mmol/kg/day x 21, oral
  Fecal observation: L
[1]; [4]
  % Growth inhibition: NE
  Fecal observation: N
[1]; Exp. 2, 0.13 mmol/kg/day x 21, oral
  Fecal observation: N
[1]; Exp. 2, 0.2 mmol/kg/day x 21, oral
  Fecal observation: L
[1]; Mus musculus, po, Exp. 1, 0.089 mmol/kg/day x 21, oral, read-out: % Growth inhibition
  inhibition in vivo at 0.089 mmol/kg/day: 28%
[1]; [5]
  inhibition in vivo at 0.13 mmol/kg/day: 59%
[1]; Mus musculus, po, Exp. 1, 0.2 mmol/kg/day x 21, oral, read-out: % Growth inhibition
  inhibition in vivo at 0.2 mmol/kg/day: 79%
[1]; [6]
  inhibition in vivo at 0.13 mmol/kg/day: 20%
[1]; Mus musculus, po, Exp. 2, 0.2 mmol/kg/day x 21, oral, read-out: % Growth inhibition
  inhibition in vivo at 0.2 mmol/kg/day: 58%

## CCCOC(=O)Nc1nc(=O)n([C@@H]2O[C@H](C)[C@@H](O)[C@H]2O)cc1F [Example 10, 5'-deoxy-5-fluoro-N^4-(propoxycarbonyl)cytidine]
[2]
  Plasma 5'-DFUR AUC: 2030 ng·h/mL
[1]; [7]
  Fecal observation: N
[1]; [6]
  inhibition in vivo at 0.13 mmol/kg/day: 39%
[1]; [8]
  inhibition in vivo at 0.3 mmol/kg/day: 56%
[1]; [9]
  inhibition in vivo at 0.67 mmol/kg/day: 75%
[1]; [10]
  inhibition in vivo at 1.5 mmol/kg/day: 86%
[1]; [11]
  inhibition in vivo at 2.25 mmol/kg/day: 93%

## CCCCOC(=O)Nc1nc(=O)n([C@@H]2O[C@H](C)[C@@H](O)[C@H]2O)cc1F [Example 11, N^4-(butoxycarbonyl)-5'-deoxy-5-fluorocytidine]
[2]
  Plasma 5'-DFUR AUC: 2060 ng·h/mL
Monkey liver acylamidase
  Acylamidase activity, Monkey Liver: 20 nmol/mg protein/hr
[1]; [7]
  Fecal observation: N
[1]; [6]
  inhibition in vivo at 0.13 mmol/kg/day: 46%
[1]; [8]
  inhibition in vivo at 0.3 mmol/kg/day: 72%
[1]; [9]
  inhibition in vivo at 0.67 mmol/kg/day: 84%
[1]; [10]
  inhibition in vivo at 1.5 mmol/kg/day: 95%
[1]; [11]
  inhibition in vivo at 2.25 mmol/kg/day: 100%
Human liver acylamidase
  Acylamidase activity, Human Liver: 71 nmol/mg protein/hr

## CCCCCOC(=O)Nc1nc(=O)n([C@@H]2O[C@H](C)[C@@H](O)[C@H]2O)cc1F [Example 12, 5'-deoxy-5-fluoro-N^4-(pentyloxycarbonyl)cytidine]
[2]
  Plasma 5'-DFUR AUC: 2900 ng·h/mL
Monkey liver acylamidase
  Acylamidase activity, Monkey Liver: 29 nmol/mg protein/hr
[1]; [12]
  Fecal observation: N
[1]; [5]
  inhibition in vivo at 0.13 mmol/kg/day: 68%
[1]; [13]
  inhibition in vivo at 0.3 mmol/kg/day: 69%
[1]; [14]
  inhibition in vivo at 0.67 mmol/kg/day: 86%
[1]; [15]
  inhibition in vivo at 1 mmol/kg/day: 86%
[1]; [16]
  inhibition in vivo at 1.5 mmol/kg/day: 96%
Human liver acylamidase
  Acylamidase activity, Human Liver: 190 nmol/mg protein/hr

## CCC(CC)COC(=O)Nc1nc(=O)n([C@@H]2O[C@H](C)[C@@H](O)[C@H]2O)cc1F [Example 15, 5'-deoxy-N^4-[(2-ethylbutoxy)carbonyl]-5-fluorocytidine]
[2]
  Plasma 5'-DFUR AUC: 2890 ng·h/mL
Monkey liver acylamidase
  Acylamidase activity, Monkey Liver: 23 nmol/mg protein/hr
Human liver acylamidase
  Acylamidase activity, Human Liver: 210 nmol/mg protein/hr

## C[C@H]1O[C@@H](n2cc(F)c(NC(=O)OCC3CCCCC3)nc2=O)[C@H](O)[C@@H]1O [Example 16, N^4-[(cyclohexylmethoxy)carbonyl]-5'-deoxy-5-fluorocytidine]
[2]
  Plasma 5'-DFUR AUC: 2520 ng·h/mL
Monkey liver acylamidase
  Acylamidase activity, Monkey Liver: 33 nmol/mg protein/hr
Human liver acylamidase
  Acylamidase activity, Human Liver: 210 nmol/mg protein/hr

## C[C@H]1O[C@@H](n2cc(F)c(NC(=O)OCCc3ccccc3)nc2=O)[C@H](O)[C@@H]1O [Example 17, 5'-deoxy-5-fluoro-N^4-[(2-phenylethoxy)carbonyl]cytidine]
[2]
  Plasma 5'-DFUR AUC: 2660 ng·h/mL
Monkey liver acylamidase
  Acylamidase activity, Monkey Liver: 22 nmol/mg protein/hr
[3]
  LD50 at 504 h: > 500 mg/kg
Human liver acylamidase
  Acylamidase activity, Human Liver: 160 nmol/mg protein/hr

## C[C@H]1O[C@@H](n2cc(F)c(NC(=O)OCCC3CCCCC3)nc2=O)[C@H](O)[C@@H]1O [Example 20, N^4-[(2-cyclohexylethoxy)carbonyl]-5'-deoxy-5-fluorocytidine]
Monkey liver acylamidase
  Acylamidase activity, Monkey Liver: 19 nmol/mg protein/hr
Human liver acylamidase
  Acylamidase activity, Human Liver: 320 nmol/mg protein/hr

## C[C@H]1O[C@@H](n2cc(F)c(NC(=O)OCCCC3CCCCC3)nc2=O)[C@H](O)[C@@H]1O [Example 21, N^4-[(3-cyclohexylpropyl)oxycarbonyl]-5'-deoxy-5-fluorocytidine]
Monkey liver acylamidase
  Acylamidase activity, Monkey Liver: 26 nmol/mg protein/hr
Human liver acylamidase
  Acylamidase activity, Human Liver: 82 nmol/mg protein/hr

## C[C@H]1O[C@@H](n2cc(F)c(NC(=O)OCCCc3ccccc3)nc2=O)[C@H](O)[C@@H]1O [Example 22, 5'-deoxy-5-fluoro-N^4-[(3-phenylpropyl)oxycarbonyl]cytidine]
Monkey liver acylamidase
  Acylamidase activity, Monkey Liver: 43 nmol/mg protein/hr
Human liver acylamidase
  Acylamidase activity, Human Liver: 110 nmol/mg protein/hr

## CC(C)COC(=O)Nc1nc(=O)n([C@@H]2O[C@H](C)[C@@H](O)[C@H]2O)cc1F [Example 24, 5'-deoxy-5-fluoro-N^4-(isobutoxycarbonyl)cytidine]
Monkey liver acylamidase
  Acylamidase activity, Monkey Liver: 18 nmol/mg protein/hr
[1]; [12]
  Fecal observation: N
[1]; [5]
  inhibition in vivo at 0.13 mmol/kg/day: 37%
[1]; [13]
  inhibition in vivo at 0.3 mmol/kg/day: 64%
[1]; [14]
  inhibition in vivo at 0.67 mmol/kg/day: 75%
[1]; [15]
  inhibition in vivo at 1 mmol/kg/day: 83%
[1]; [16]
  inhibition in vivo at 1.5 mmol/kg/day: 89%
Human liver acylamidase
  Acylamidase activity, Human Liver: 64 nmol/mg protein/hr

## CCCC(CCC)COC(=O)Nc1nc(=O)n([C@@H]2O[C@H](C)[C@@H](O)[C@H]2O)cc1F [Example 25, 5'-deoxy-5-fluoro-N^4-[(2-propylpentyl)oxycarbonyl]cytidine]
Monkey liver acylamidase
  Acylamidase activity, Monkey Liver: < 13 nmol/mg protein/hr
Human liver acylamidase
  Acylamidase activity, Human Liver: 160 nmol/mg protein/hr

## CCCCC(CC)COC(=O)Nc1nc(=O)n([C@@H]2O[C@H](C)[C@@H](O)[C@H]2O)cc1F (some centres unmarked) [Example 26, 5'-deoxy-N^4-[(2-ethylhexyl)oxycarbonyl]-5-fluorocytidine]
Monkey liver acylamidase
  Acylamidase activity, Monkey Liver: 20 nmol/mg protein/hr
Human liver acylamidase
  Acylamidase activity, Human Liver: 560 nmol/mg protein/hr

## CCCCCCCOC(=O)Nc1nc(=O)n([C@@H]2O[C@H](C)[C@@H](O)[C@H]2O)cc1F [Example 27, 5'-deoxy-5-fluoro-N^4-(heptyloxycarbonyl)cytidine]
Monkey liver acylamidase
  Acylamidase activity, Monkey Liver: 59 nmol/mg protein/hr
[1]; Exp. 2, 1.5 mmol/kg/day x 21, oral
  Fecal observation: N
[1]; [7]
  Fecal observation: N
[1]; [6]
  inhibition in vivo at 0.13 mmol/kg/day: 26%
[1]; [8]
  inhibition in vivo at 0.3 mmol/kg/day: 72%
[1]; [9]
  inhibition in vivo at 0.67 mmol/kg/day: 84%
[1]; [10]
  inhibition in vivo at 1.5 mmol/kg/day: 94%
[1]; [11]
  inhibition in vivo at 2.25 mmol/kg/day: 103%
Human liver acylamidase
  Acylamidase activity, Human Liver: 110 nmol/mg protein/hr

## C[C@H]1O[C@@H](n2cc(F)c(NC(=O)OCC(C)(C)C)nc2=O)[C@H](O)[C@@H]1O [Example 28, 5'-deoxy-5-fluoro-N^4-(neopentyloxycarbonyl)cytidine]
[2]
  Plasma 5'-DFUR AUC: 1400 ng·h/mL
Monkey liver acylamidase
  Acylamidase activity, Monkey Liver: 25 nmol/mg protein/hr
Human liver acylamidase
  Acylamidase activity, Human Liver: 52 nmol/mg protein/hr

## C[C@H]1O[C@@H](n2cc(F)c(NC(=O)OCCC(C)(C)C)nc2=O)[C@H](O)[C@@H]1O [Example 29, 5'-Deoxy-N^4-[(3,3-dimethylbutoxy)carbonyl]-5-fluorocytidine]
[2]
  Plasma 5'-DFUR AUC: 2090 ng·h/mL
Monkey liver acylamidase
  Acylamidase activity, Monkey Liver: 22 nmol/mg protein/hr
Human liver acylamidase
  Acylamidase activity, Human Liver: 50 nmol/mg protein/hr

— patent US5472949A, “N^4 -(substituted-oxycarbonyl)-5'-deoxy-5-fluorocytidine compounds, compositions and methods of using same” (Hoffmann-La Roche Inc., priority 1992, dated 1995)
